Measurements from paper PMC4951033, “Elevation of the Yields of Very Long Chain Polyunsaturated Fatty Acids via Minimal Codon Optimization of Two Key Biosynthetic Enzymes” (PLoS ONE, 2016).

Target: T1, PinD6 (PinDes6, delta-6 desaturase) (Phytophthora infestans, UniProt A0A833SQW7)
T1 construct: gene GN244_ATG16356

Structure (SMILES) | GC of fatty acid methyl esters from fed yeast
CC/C=C\C/C=C\C/C=C\CCCCCCCC(=O)O [ALA, α-linolenic acid] | WT-PinD6 can convert LA and ALA to GLA and SDA
CCCCC/C=C\C/C=C\CCCCCCCC(=O)O [LA] | WT-PinD6 can convert LA and ALA to GLA and SDA
